Consider 16 compounds from ChEMBL document CHEMBL1909576, “Continued exploration of biphenylsulfonamide scaffold as a platform for aggrecanase-1 inhibition” (Bioorg Med Chem Lett, 2011).

Converted amounts (≈) assume the structure as drawn.

For data set [1], the target named is T1, A disintegrin and metalloproteinase with thrombospondin motifs 5 (Homo sapiens, UniProt Q9UNA0).
T1 sequence (Q9UNA0 whole entry): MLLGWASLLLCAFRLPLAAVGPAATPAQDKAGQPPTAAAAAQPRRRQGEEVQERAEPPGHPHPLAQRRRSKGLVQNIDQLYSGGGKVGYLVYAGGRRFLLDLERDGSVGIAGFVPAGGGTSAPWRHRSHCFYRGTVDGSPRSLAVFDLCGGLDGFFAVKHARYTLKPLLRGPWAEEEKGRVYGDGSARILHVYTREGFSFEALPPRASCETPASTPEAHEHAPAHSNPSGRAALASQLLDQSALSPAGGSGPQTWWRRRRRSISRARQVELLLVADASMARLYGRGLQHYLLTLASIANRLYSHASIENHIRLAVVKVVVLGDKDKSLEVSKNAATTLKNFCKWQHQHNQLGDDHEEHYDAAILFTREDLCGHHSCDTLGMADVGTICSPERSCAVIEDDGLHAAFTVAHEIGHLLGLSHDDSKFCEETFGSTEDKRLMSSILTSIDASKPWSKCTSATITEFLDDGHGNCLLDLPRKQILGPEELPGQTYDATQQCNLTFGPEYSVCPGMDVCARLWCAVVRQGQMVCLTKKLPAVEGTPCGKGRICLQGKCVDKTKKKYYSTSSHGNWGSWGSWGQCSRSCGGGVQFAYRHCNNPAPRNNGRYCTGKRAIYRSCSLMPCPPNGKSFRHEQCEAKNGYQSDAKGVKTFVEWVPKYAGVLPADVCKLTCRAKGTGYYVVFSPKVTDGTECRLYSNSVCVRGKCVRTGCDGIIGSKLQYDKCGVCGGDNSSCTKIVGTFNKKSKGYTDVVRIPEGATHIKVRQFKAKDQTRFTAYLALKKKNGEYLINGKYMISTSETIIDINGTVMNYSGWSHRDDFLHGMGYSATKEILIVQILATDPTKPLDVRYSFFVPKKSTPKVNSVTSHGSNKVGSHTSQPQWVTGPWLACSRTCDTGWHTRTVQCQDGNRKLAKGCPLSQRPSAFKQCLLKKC
Kind of data set: Inhibition of aggrecanase-2.

For the next data set, the target named is Collagenase 3 (Homo sapiens, UniProt P45452). Kind of data set: Inhibition of MMP13.
The target of data set [2] is T2, A disintegrin and metalloproteinase with thrombospondin motifs 4 (Bos taurus) (UniProt Q9TT93).
T2 sequence (whole entry): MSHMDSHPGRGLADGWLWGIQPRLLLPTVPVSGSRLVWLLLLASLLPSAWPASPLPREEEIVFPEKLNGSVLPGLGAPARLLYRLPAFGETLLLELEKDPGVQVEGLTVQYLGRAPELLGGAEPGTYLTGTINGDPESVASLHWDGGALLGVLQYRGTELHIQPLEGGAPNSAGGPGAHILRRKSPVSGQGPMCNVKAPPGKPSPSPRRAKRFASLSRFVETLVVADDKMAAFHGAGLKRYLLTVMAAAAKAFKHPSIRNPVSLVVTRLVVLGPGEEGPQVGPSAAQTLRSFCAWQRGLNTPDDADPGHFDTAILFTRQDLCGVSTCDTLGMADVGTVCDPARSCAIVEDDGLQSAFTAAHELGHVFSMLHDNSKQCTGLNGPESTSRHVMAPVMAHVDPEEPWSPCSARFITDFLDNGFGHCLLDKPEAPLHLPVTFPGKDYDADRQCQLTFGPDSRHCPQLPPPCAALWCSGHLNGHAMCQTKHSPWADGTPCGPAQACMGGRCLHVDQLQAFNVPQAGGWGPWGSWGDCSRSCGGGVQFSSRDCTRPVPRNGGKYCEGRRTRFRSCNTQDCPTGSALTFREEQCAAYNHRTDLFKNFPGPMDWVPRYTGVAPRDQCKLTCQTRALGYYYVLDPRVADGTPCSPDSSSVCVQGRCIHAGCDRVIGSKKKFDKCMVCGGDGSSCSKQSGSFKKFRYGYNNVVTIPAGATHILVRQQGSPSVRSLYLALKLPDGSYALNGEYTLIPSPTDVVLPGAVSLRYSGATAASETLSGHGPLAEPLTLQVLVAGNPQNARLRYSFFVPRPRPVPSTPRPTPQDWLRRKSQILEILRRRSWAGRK
Kind of data set: Inhibition of aggrecanase 1 in bovine cartilage explant assessed as inhibition of IL1-stimulated proteoglycan degradation at 10 ug/ml.

The target of data set [3] is T3, A disintegrin and metalloproteinase with thrombospondin motifs 4 (Homo sapiens, UniProt O75173).
T3 sequence (O75173 whole entry): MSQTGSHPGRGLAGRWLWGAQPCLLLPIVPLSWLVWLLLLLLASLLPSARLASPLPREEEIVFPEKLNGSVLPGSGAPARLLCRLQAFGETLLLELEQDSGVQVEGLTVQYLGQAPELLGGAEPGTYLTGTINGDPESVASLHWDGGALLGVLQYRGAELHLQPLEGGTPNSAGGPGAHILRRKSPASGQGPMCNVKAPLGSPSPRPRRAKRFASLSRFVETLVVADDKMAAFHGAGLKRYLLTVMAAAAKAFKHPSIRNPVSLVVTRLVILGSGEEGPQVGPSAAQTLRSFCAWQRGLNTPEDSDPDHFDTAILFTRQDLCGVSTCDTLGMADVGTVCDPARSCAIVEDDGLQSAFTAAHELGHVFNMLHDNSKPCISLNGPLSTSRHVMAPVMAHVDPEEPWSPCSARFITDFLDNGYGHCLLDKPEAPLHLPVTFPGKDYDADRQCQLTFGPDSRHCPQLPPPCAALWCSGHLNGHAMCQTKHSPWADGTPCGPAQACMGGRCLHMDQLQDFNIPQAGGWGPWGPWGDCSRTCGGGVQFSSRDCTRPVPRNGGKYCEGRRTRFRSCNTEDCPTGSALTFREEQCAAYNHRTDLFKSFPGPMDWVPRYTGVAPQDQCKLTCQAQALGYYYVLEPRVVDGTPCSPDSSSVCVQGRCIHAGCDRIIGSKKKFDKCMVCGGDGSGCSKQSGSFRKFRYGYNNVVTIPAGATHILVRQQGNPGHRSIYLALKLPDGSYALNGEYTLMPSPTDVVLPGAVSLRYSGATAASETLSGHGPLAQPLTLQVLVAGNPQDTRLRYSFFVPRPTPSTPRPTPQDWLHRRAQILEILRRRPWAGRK
Kind of data set: Inhibition of aggrecanase-1.

Data set [4] has as its target T4, A disintegrin and metalloproteinase with thrombospondin motifs 5 (Homo sapiens) (UniProt Q9UNA0).
T4 sequence (whole entry): T1 sequence (Q9UNA0 whole entry)
The data set is described as follows: Inhibition of aggrecanase-2 at 200 uM.

Data set [5] in a line: Solubility of the compound at pH 7.4. In kind it is physicochemical. The settings on record: buffer.
A short description of data set [6]: Permeability across human Caco2 cells. In kind it is ADME, cell-based. Particulars: Caco-2, read-out: permeability. For orientation: Caco-2 cells form a polarised layer with tight junctions and transporters.
A short description of data set [7]: Half life in Sprague-Dawley rat. In kind it is ADME, organism-based. The settings on record: in vivo.
Data set [8] in a line: Clearance in Sprague-Dawley rat. Type of data set: ADME, organism-based. Particulars: in vivo.
Data set [9] is described as follows: Bioavailability in Sprague-Dawley rat. In kind it is ADME, organism-based. The settings on record: in vivo.

For `Cc1c(COc2ccc(-c3ccc(S(=O)(=O)N[C@@H](C(=O)O)C(C)C)cc3)cc2)oc2ccccc12`, the values for the concentration for half-maximal inhibition (IC50) (in [1]; against Collagenase 3) were 3700 nM and 4 nM, respectively. Further, the inhibition in data set [2] was determined as 89%.

On to `CC(=O)NCc1ccc(-c2ccc(S(=O)(=O)N[C@@H](C(=O)O)C(C)C)cc2)cc1`, for which the figures for the IC50 (in [3]; on Collagenase 3) were 420 nM and 450 nM, respectively. In addition, the inhibition in [4] was 73%; in data set [2] it was 20%.

For the compound `CC(C)[C@@H](NS(=O)(=O)c1ccc(-c2ccc(OCc3ccc(C(F)(F)F)cc3)cc2)cc1)C(=O)O`, the IC50 in data set [3] was 1900 nM; against Collagenase 3, 2 nM.

Take `CC(C)[C@@H](NS(=O)(=O)c1ccc(-c2ccc(OCc3ccnc4ccccc34)cc2)cc1)C(=O)O`: the IC50 turned out to be 1000 nM in data set [3] and 5.2 nM at Collagenase 3.

As for `CC(C)[C@@H](NS(=O)(=O)c1ccc(-c2ccc(OCc3ccccc3C(F)(F)F)cc2)cc1)C(=O)O`, the IC50 was 9100 nM in data set [3] and 24700 nM against Collagenase 3.

Turning to `CC(C)[C@@H](NS(=O)(=O)c1ccc(-c2ccc(OCc3cccc(C#N)c3)cc2)cc1)C(=O)O`, the IC50 was found to be 800 nM in [3] and 0.1 nM on Collagenase 3. Further, the solubility in data set [5] is 53 µg/mL (≈ 114 µM). In addition, the Papp in data set [6] was determined as 0.8 ×10⁻⁶ cm/s. In addition, the half-life in [7] is 7 h.

For the compound `CC(Oc1ccc(-c2ccc(S(=O)(=O)N[C@@H](C(=O)O)C(C)C)cc2)cc1)c1cccc(C(F)(F)F)c1` (some centres undefined), the IC50 amounted to 2700 nM in data set [3] and 12 nM on Collagenase 3.

As to `CC(C)[C@@H](NS(=O)(=O)c1ccc(-c2ccc(OCc3cccc(Br)c3)cc2)cc1)C(=O)O`, the values for the half-inhibitory concentration (IC50) (in data set [3]; at Collagenase 3) were 420 nM and 1600 nM, respectively.

Consider `CC(C)[C@@H](NS(=O)(=O)c1ccc(-c2ccc(OCc3ccccc3C#N)cc2)cc1)C(=O)O`, for which the values for the IC50 (in data set [3]; against Collagenase 3) were 15000 nM and 4.6 nM, respectively. Besides, in [5], the solubility was > 100 µg/mL. Besides, the clearance in data set [8] was 1.07 mL/min/kg. This compound also showed a half-life in data set [7] of 6 h. This compound also gave a bioavailability in [9] of 23%.

For `CC(C)[C@@H](NS(=O)(=O)c1ccc(-c2ccc(OCc3cccc(C(F)(F)F)c3)cc2)cc1)C(=O)O`, the results for the IC50 (in data set [3]; in data set [1]; against Collagenase 3) were 310 nM, 2380 nM and 3.5 nM, respectively. Further, the inhibition in data set [2] is 87%.

With `CC(C)[C@@H](NS(=O)(=O)c1ccc(-c2ccc(OCc3ccncc3)cc2)cc1)C(=O)O`, the IC50 turned out to be 8500 nM in data set [3] and 1.1 nM against Collagenase 3.

Take `CC(C)[C@@H](NS(=O)(=O)c1ccc(-c2ccc(OCc3ccnc(C(F)(F)F)c3)cc2)cc1)C(=O)O`: the IC50 worked out at 2200 nM in [3] and 1 nM at Collagenase 3.

For the compound `CC(C)[C@@H](NS(=O)(=O)c1ccc(-c2ccc(OCc3ccc(C#N)cc3)cc2)cc1)C(=O)O`, the IC50 in data set [3] stood at 1400 nM; at Collagenase 3, 0.1 nM.

`CC(C)[C@@H](NS(=O)(=O)c1ccc(-c2ccc(OCc3cccc([N+](=O)[O-])c3)cc2)cc1)C(=O)O`: the IC50 in [3] is 540 nM; on Collagenase 3, 1.4 nM.

As for `CC(C)[C@@H](NS(=O)(=O)c1ccc(-c2ccc(OCc3cccc(Cl)c3)cc2)cc1)C(=O)O`, the 50% inhibitory concentration (IC50) in data set [3] came out at 400 nM; against Collagenase 3 it was 1.4 nM.

`CC(C)[C@@H](NS(=O)(=O)c1ccc(-c2ccc(OCc3cccc(C(=O)O)c3)cc2)cc1)C(=O)O`: the IC50 in [3] was determined as 22000 nM; against Collagenase 3 it was 2.7 nM.

One may read the IC50 as the concentration that inhibits the measured activity by half. The term inhibition denotes the drop in the measured response relative to a control, in per cent. The term solubility denotes how much of the substance goes into solution per volume. A low value points to little dissolved substance. Usually half-life stands for the time in which the quantity being followed falls by half. Broadly, the clearance is a measure of how efficiently the substance is removed, as volume per time. Higher therefore signals efficient removal. One may read the bioavailability as the share of a dose that reaches the circulation, judged against a reference dose that is usually intravenous. A lower bioavailability goes with little systemic uptake.
